In US8916702B2 (priority 2012, dated 2014) one finds EC50 data, which are given here for 44 compounds.

This experiment deals with HCV pseudoparticles (genotype 1a HCV E1 and E2 envelope, H77C isolate). As to the kind of experiment: microbe, parasite or virus in culture. It is filed as cell-based. The note with it: Hepatitis C virus.
The mark [1] stands for this setting: Huh-7, 48 h, read-out: Activity (EC50 class), HCV pseudoparticle infection of Huh7 cells, luciferase 2 days after infection, EC50 expressed as class A/B.
[2] abbreviates: Huh-7, read-out: Activity (EC50 class), HCV pseudoparticles (genotype 1a, H77C) in Huh7 cells, EC50 expressed as class A/B.
Where [3] appears, read: Huh-7, 48 h, HCV pseudoparticles (genotype 1a, H77C) in Huh7 cells, average of duplicate, luciferase 2 days after infection.
[4] abbreviates: Huh-7, 48 h, read-out: Activity (EC50 class), HCV pseudoparticles, Huh7 cells, luciferase 2 days after infection, average of duplicates.
[5] abbreviates: Huh-7, 48 h, HCV pseudoparticles, Huh7 cells, luciferase 2 days after infection, average of duplicates.
Setting [6] is: Huh-7, 48 h, HCV pseudoparticle infection of Huh7 cells, luciferase 2 days after infection, average of duplicates.

Like-named read-outs stand apart in the source and are kept apart here.

What is called EC50 is the concentration needed to bring the measured effect to its halfway point. `O=C(NC[C@H](NC(=O)c1ccc(Nc2nc(NC3(c4ccc(Cl)cc4)CC3)nc(OCC(F)(F)F)n2)cc1)C(=O)O)C(=O)NC1CCCCC1` [Compound 1174]: the EC50 under setting [1] fell in the range of 0.01 to 10 nM.
On the same count and under the same terms, with `COC(=O)[C@H](CCNC(=O)C(=O)NC1CC(C)(C)CC(C)(C)C1)NC(=O)c1ccc(Nc2nc(NC3(c4ccc(Cl)cc4)CC3)nc(OCC(F)(F)F)n2)cc1` [Compound 1071] the figure was 0.01 to 10 nM.
For the compound `COCc1ccc(NC(=O)C(=O)NC[C@H](NC(=O)c2ccc(Nc3nc(NC4(c5ccc(Cl)cc5)CC4)nc(OCC(F)(F)F)n3)cc2)C(=O)OC)cc1` [Compound 3205], the EC50 under setting [2] was in the range of 0.01 to 10 nM.
`O=C(NC[C@H](NC(=O)c1ccc(Nc2nc(NC3(c4ccc(Cl)cc4)CC3)nc(OCC(F)(F)F)n2)cc1)C(=O)O)C(=O)Nc1ccccc1F` [Compound 1361]: the EC50 under setting [1] fell in the range of 0.01 to 10 nM.
In the case of `NC(=O)C(=O)N1CCCC(CNC(=O)c2ccc(Nc3nc(NC4(c5ccc(Cl)cc5)CC4)nc(OCC(F)(F)F)n3)cc2)C1` (stereo not shown) [Compound 3480], the concentration giving a half-maximal response (EC50) under setting [2] was 0.01 to 10 nM.
Take `O=C(NCC(O)CNC(=O)c1ccc(Nc2nc(NC3(c4ccc(Cl)cc4)CC3)nc(OCC(F)(F)F)n2)cc1)C(=O)Nc1ccccc1` (stereo not shown) [Compound 3460]: the EC50 by setting is: under setting [3], 0.016 nM; under setting [2], 0.01 to 10 nM.
Turning to `COC(=O)[C@H](CCNC(=O)C(=O)Nc1ccc(CCO)cc1)NC(=O)c1ccc(Nc2nc(NC3(c4ccc(Cl)cc4)CC3)nc(OCC(F)(F)F)n2)cc1` [Compound 3218], the EC50 under setting [2] is 0.01 to 10 nM.
Consider `O=C(NC[C@H](NC(=O)c1ccc(Nc2nc(NC3(c4ccc(Cl)cc4)CC3)nc(OCC(F)(F)F)n2)cc1)C(=O)Cl)C(=O)Nc1cccc(Oc2cccnc2)c1` [Compound 3792], for which the EC50 under setting [4] was in the range of 0.01 to 10 nM.
In the case of `O=C(NCC[C@H](NC(=O)c1ccc(Nc2nc(NC3(c4ccc(Cl)cc4)CC3)nc(OCC(F)(F)F)n2)cc1)C(=O)O)C(=O)NCC1CC1(Cl)Cl` (stereo partly shown) [Compound 1445], the EC50 under setting [1] lay within 0.01 to 10 nM.
As to `COC(=O)[C@H](CCNC(=O)C(=O)Nc1ccc(N2CCOCC2)cc1)NC(=O)c1ccc(Nc2nc(NC3(c4ccc(Cl)cc4)CC3)nc(OCC(F)(F)F)n2)cc1` [Compound 3112], the EC50 under setting [2] lay within 0.01 to 10 nM.
The same measure, in the same setting: with `Cc1cc(C)n(-c2ccc(NC(=O)C(=O)NCC[C@H](NC(=O)c3ccc(Nc4nc(NC5(c6ccc(Cl)cc6)CC5)nc(OCC(F)(F)F)n4)cc3)C(=O)O)cc2)n1` [Compound 3238] the figure was 0.01 to 10 nM; with `Cc1ccc(NC(=O)C(=O)N(C)CCCN(C)C(=O)c2ccc(Nc3nc(NC4(c5ccc(Cl)cc5)CC4)nc(OCC(F)(F)F)n3)cc2)cc1Cl` [Compound 3434], 0.01 to 10 nM.
As to `COC(=O)[C@H](CNC(=O)C(=O)Nc1cccc(OCc2ccccc2)c1)NC(=O)c1ccc(Nc2nc(NC3(c4ccc(Cl)cc4)CC3)nc(OCC(F)(F)F)n2)cc1` [Compound 3686], the EC50 under setting [4] lay within 0.01 to 10 nM.
As to `CC(C)(CNC(=O)C(=O)Nc1nc2ccccc2s1)CNC(=O)c1ccc(Nc2nc(NC3(c4ccc(Cl)cc4)CC3)nc(OCC(F)(F)F)n2)cc1F` [Compound 3568], the EC50 under setting [2] lay within 0.01 to 10 nM.
The same measure, in the same setting: next, `CCC(CC)CCNC(=O)c1ccc(NC(=O)C(=O)NC[C@H](NC(=O)c2ccc(Nc3nc(NC4(c5ccc(Cl)cc5)CC4)nc(OCC(F)(F)F)n3)cc2)C(=O)OC)cc1` [Compound 3089]: 0.01 to 10 nM; `COC(=O)[C@H](CCNC(=O)C(=O)Nc1ccc(CN2CCCCC2)cc1)NC(=O)c1ccc(Nc2nc(NC3(c4ccc(Cl)cc4)CC3)nc(OCC(F)(F)F)n2)cc1` [Compound 3313]: 0.01 to 10 nM.
In the case of `O=C(NCC[C@H](NC(=O)c1ccc(Nc2nc(NC3(c4ccc(Cl)cc4)CC3)nc(OCC(F)(F)F)n2)cc1)C(=O)O)C(=O)Nc1cccc(-c2ncc[nH]2)c1` [Compound 3634], the EC50 under setting [4] was in the range of 0.01 to 10 nM.
With `COc1ncccc1NC(=O)C(=O)NCC[C@H](NC(=O)c1ccc(Nc2nc(NC3(c4ccc(Cl)cc4)CC3)nc(OCC(F)(F)F)n2)cc1)C(=O)O` [Compound 1261], the EC50 under setting [1] was in the range of 0.01 to 10 nM.
For the compound `COC(=O)[C@H](CCNC(=O)C(=O)NCC(C)(C)C)NC(=O)c1ccc(Nc2nc(NC3(c4ccc(Cl)cc4)CC3)nc(OCC(F)(F)F)n2)cc1` [Compound 1195], under setting [1], the EC50 was in the range of 0.01 to 10 nM.
The same measure, in the same setting: next, `COC(=O)[C@H](CCNC(=O)C(=O)Nc1cccc(Cl)c1)NC(=O)c1ccc(Nc2nc(NC3(c4ccc(Cl)cc4)CC3)nc(OCC(F)(F)F)n2)cc1` [Compound 1499]: 0.01 to 10 nM.
In the case of `CC(C)(CNC(=O)C(=O)Nc1cccnc1-n1cccn1)CNC(=O)c1ccc(Nc2nc(NC3(c4ccc(Cl)cc4)CC3)nc(OCC(F)(F)F)n2)cc1` [Compound 3256], under setting [2], the EC50 was in the range of 0.01 to 10 nM.
For the compound `O=C(NCC[C@H](NC(=O)c1ccc(Nc2nc(NC3(c4ccc(Cl)cc4)CC3)nc(OCC(F)(F)F)n2)cc1)C(=O)O)C(=O)Nc1cccc(OC(F)(F)F)c1` [Compound 3619], the EC50 is 0.084 nM under setting [5] and 0.01 to 10 nM under setting [4].
Take `COC(=O)[C@H](CCNC(=O)C(=O)Nc1ccc(CCCl)cc1)NC(=O)c1ccc(Nc2nc(NC3(c4ccc(Cl)cc4)CC3)nc(OCC(F)(F)F)n2)cc1` [Compound 3115]: the EC50 under setting [2] lay in the range of 0.01 to 10 nM.
Same read-out and setting: with `CC(C)(CNC(=O)C(=O)Nc1c(F)cc(F)cc1F)CNC(=O)c1ccc(Nc2nc(NC3(c4ccc(Cl)cc4)CC3)nc(OCC(F)(F)F)n2)cc1` [Compound 3416] the figure was 0.01 to 10 nM; with `O=C(Cc1ccc(F)cc1F)C(=O)NCC(O)CNC(=O)c1ccc(Nc2nc(NC3(c4ccc(Cl)cc4)CC3)nc(OCC(F)(F)F)n2)cc1` (stereo not shown) [Compound 3459], 0.01 to 10 nM.
In the case of `COC(=O)/C=C/c1ccccc1NC(=O)C(=O)NCC(C)(C)CNC(=O)c1ccc(Nc2nc(NC3(c4ccc(Cl)cc4)CC3)nc(OCC(F)(F)F)n2)cc1` [Compound 3138], the EC50 under setting [3] stood at 0.46 nM and the EC50 under setting [2] lay in the range of 0.01 to 10 nM.
As for `COCc1ccc(NC(=O)C(=O)NC[C@H](NC(=O)c2ccc(Nc3nc(NC4(c5ccc(Cl)cc5)CC4)nc(OCC(F)(F)F)n3)cc2)C(=O)O)cc1` [Compound 3288], the EC50 under setting [2] was in the range of 0.01 to 10 nM.
In the case of `COC(=O)[C@H](CCNC(=O)C(=O)Nc1ccc(-c2ccc(-c3ccccc3)cc2)cc1)NC(=O)c1ccc(Nc2nc(NC3(c4ccc(Cl)cc4)CC3)nc(OCC(F)(F)F)n2)cc1` [Compound 1527], the EC50 by setting is: under setting [6], 0.15 nM; under setting [1], 0.01 to 10 nM.
As for `CC(C)(O)C=Cc1cccc(NC(=O)C(=O)NCC[C@H](NC(=O)c2ccc(Nc3nc(NC4(c5ccc(Cl)cc5)CC4)nc(OCC(F)(F)F)n3)cc2)C(=O)O)c1` [Compound 3648], the EC50 by setting is: under setting [5], 0.2 nM; under setting [4], 0.01 to 10 nM.
As for `COC(=O)[C@H](CNC(=O)C(=O)NCCn1ccnc1C)NC(=O)c1ccc(Nc2nc(NC3(c4ccc(Cl)cc4)CC3)nc(OCC(F)(F)F)n2)cc1` [Compound 1301], the half-maximal effective concentration (EC50) under setting [1] lay within 0.01 to 10 nM.
On to `O=C(NC[C@H](NC(=O)c1ccc(Nc2nc(NC3(c4ccc(Cl)cc4)CC3)nc(OCC(F)(F)F)n2)cc1)C(=O)Cl)C(=O)Nc1cccc(C(=O)c2ccccc2)c1` [Compound 3748], for which the concentration giving a half-maximal response (EC50) under setting [4] fell in the range of 0.01 to 10 nM.
Consider `COCCNC(=O)C(=O)NC[C@H](NC(=O)c1ccc(Nc2nc(NC3(c4ccc(Cl)cc4)CC3)nc(OCC(F)(F)F)n2)cc1)C(=O)O` [Compound 1046], for which the EC50 under setting [1] is 0.01 to 10 nM.
For the compound `O=C(NC[C@H](NC(=O)c1ccc(Nc2nc(NC3(c4ccc(Cl)cc4)CC3)nc(OCC(F)(F)F)n2)cc1)C(=O)O)C(=O)Nc1ccc(Oc2cccnc2)cc1` [Compound 3290], the EC50 under setting [2] is 0.01 to 10 nM.
Same read-out and setting: with `CC(C)(CNC(=O)C(=O)NCc1ccc(F)cc1)CNC(=O)c1ccc(Nc2nc(NC3(c4ccc(Cl)cc4)CC3)nc(OCC(F)(F)F)n2)cc1F` [Compound 3514] the figure was 0.01 to 10 nM.
Take `COC(=O)[C@@H](CCNC(=O)C(=O)NCC1(c2ccccc2)CC1)NC(=O)c1ccc(Nc2nc(NC3(c4ccc(Cl)cc4)CC3)nc(OCC(F)(F)F)n2)cc1` [Compound 1378]: the EC50 is, setting by setting: under setting [6], 0.23 nM; under setting [1], 0.01 to 10 nM.
`O=C(NCCCCNC(=O)c1ccc(Nc2nc(NC3(c4ccc(Cl)cc4)CC3)nc(OCC(F)(F)F)n2)cc1)C(=O)N1CCc2ccccc2C1` [Compound 3402]: the concentration for a half-maximal effect (EC50) was 0.2 nM under setting [3] and 0.01 to 10 nM under setting [2].
Regarding `COC(=O)[C@H](CNC(=O)C(=O)Nc1cccc(Oc2cccnc2)c1)NC(=O)c1ccc(Nc2nc(NC3(c4ccc(Cl)cc4)CC3)nc(OCC(F)(F)F)n2)cc1` [Compound 3737], the EC50 reads like this: under setting [5], 1.63 nM; under setting [4], 0.01 to 10 nM.
For the compound `COC(=O)[C@H](CNC(=O)C(=O)NCc1cccc(F)c1)NC(=O)c1ccc(Nc2nc(NC3(c4ccc(Cl)cc4)CC3)nc(OCC(F)(F)F)n2)cc1` [Compound 1131], under setting [1], the EC50 is 0.01 to 10 nM.
For `O=C(NCC[C@H](NC(=O)c1ccc(Nc2nc(NC3(c4ccc(Cl)cc4)CC3)nc(OCC(F)(F)F)n2)cc1)C(=O)O)C(=O)NCC1(CO)CC1` [Compound 1424], under setting [1], the EC50 fell in the range of 0.01 to 10 nM.
Take `CC(C)(CNC(=O)C(=O)Nc1nc2c(Cl)cccc2s1)CNC(=O)c1ccc(Nc2nc(NC3(c4ccc(Cl)cc4)CC3)nc(OCC(F)(F)F)n2)cc1` [Compound 3815]: the EC50 under setting [4] is 0.01 to 10 nM.
For the compound `COC(=O)[C@H](CNC(=O)C(=O)Nc1cncn1C)NC(=O)c1ccc(Nc2nc(NC3(c4ccc(Cl)cc4)CC3)nc(OCC(F)(F)F)n2)cc1` [Compound 1247], the EC50 under setting [1] lay in the range of 0.01 to 10 nM.
Still for that read-out and setting: next, `COC(=O)[C@H](CNC(=O)C(=O)NCCn1cccn1)NC(=O)c1ccc(Nc2nc(NC3(c4ccc(Cl)cc4)CC3)nc(OCC(F)(F)F)n2)cc1` [Compound 1300]: 0.01 to 10 nM.
Regarding `O=C(NC/C(=N/C(=O)c1ccc(Nc2nc(NC3(c4ccc(Cl)cc4)CC3)nc(OCC(F)(F)F)n2)cc1)C(=O)O)C(=O)Nc1ccc(N2CCOCC2)cc1` [Compound 3148], the EC50 under setting [2] is 0.01 to 10 nM.
Take `O=C(NCCc1ccccn1)C(=O)NCC[C@H](NC(=O)c1ccc(Nc2nc(NC3(c4ccc(Cl)cc4)CC3)nc(OCC(F)(F)F)n2)cc1)C(=O)O` [Compound 1326]: the EC50 under setting [1] was 0.01 to 10 nM.
